Assay [1] concerns the target T1, FTase (Homo sapiens, UniProt P49356).
T1 construct: FTase and GGTase I activities from 60,000×g supernatants of human Burkitt lymphoma (Daudi) cells; endogenous in cells; host or cells: human Burkitt lymphoma (Daudi) cells, 60,000xg supernatant (partially purified)
Description: Peptidomimetics farnesylation assay (silica gel TLC). The settings on record: Table 4; substrate for farnesylation, TLC. In kind it is biochemical. The procedure: The ability of human Burkitt lymphoma (Daudi) FTase to farnesylate peptides and peptidomimetics was determined as described previously (34, 35). Briefly, 25 μl of reaction mixture containing 50 μg of 60,000×g supernatants and 20 μM peptidomimetic in 50 mM Tris, pH 7.5, 50 μM ZnCl2, 20 mM KCl, 3 mM MgCl2, 1 mM DTT and 0.2% octylβ-D-glucoside was incubated for 30 minutes at 37° C., then spotted onto silica gel G TLC sheets (20×20 cm, Brinkmann Instruments), and developed with n-propanol/5 N ammonium hydroxide/water (6:1:1). The dried sheets were sprayed with En^3 Hance (DuPont NEN) and exposed to x-ray film for detection of [^3 H] farnesylated products.

Assay [2] concerns the target T2, GGTase I (Homo sapiens, UniProt P53609).
T2 construct: FTase and GGTase I activities from 60,000×g supernatants of human Burkitt lymphoma (Daudi) cells; endogenous in cells; host or cells: human Burkitt lymphoma (Daudi) cells, 60,000xg supernatant (partially purified)
Description: GGTase I activity assay: transfer of [3H]geranylgeranyl to recombinant H-Ras-CVLL, Daudi 60,000xg supernatant. To be noted: Table 4; read-out: GGTase-I IC50. In kind it is biochemical. Here is the method:
FTase and GGTase I activities from 60,000×g supernatants of human Burkitt lymphoma (Daudi) cells (ATCC, Rockville, Md., USA) were assayed as described previously for FTase (41). Briefly, 100 μg of the supernatant was incubated in 50 mM Tris, pH 7.5, 50 μM ZnCl2, 20 mM KCl and 1 mM dithiothreitol (DTT). The reaction was incubated at […] for 30 min with recombinant Ha-Ras-CVLS (11 μM) and [^3 H]FPP (625 nM; 16.3 Ci/mmol) for FTase, and recombinant Ha-Ras-CVLL (5 μM) and [^3 H]geranylgeranylpyrophosphate (525 nM; 19.0 Ci/mmol) for GGTase I. The peptidomimetics were mixed with FTase and GGTase before adding to the reaction mixture.
(§1) Human Burkitt lymphoma (Daudi) cells (ATCC, Rockville, Md.) were grown in suspension in RPMI 1640 medium containing 10% fetal bovine serum (FBS) and 1% Pen-Strep in a humidified 10% CO2 incubator at 37° C. The cells were harvested and sonicated in 50 mM Tris, pH 7.5, 1 mM EDTA, 1 mM EGTA, 25 μg/ml leupeptin, 1 mM phenylmethylsulfonyl fluoride. Homogenates were then spun at 12,000×g and the resulting supernatant further spun at 60,000×g. The supernatant was assayed for both FTase and GGTase I. Briefly, 100 μg of the supernatants was incubated in 50 mM Tris, pH 7.5, 50 μM ZnCl2, 20 mM KCl, 3 mM MgCl2 and 1 mM DTT. For FTase assays, the reaction was incubated at 37° C. for 30 minutes with recombinant H-Ras-CVLS (11 μM) and [^3 H] FPP (625 nM; 16.3 Ci/mmol). For GGTase assays, the reaction was also incubated for 30 minutes at 37° C. but with recombinant H-Ras-CVLL (5 μM) and [^3 H] GGPP (525 nM; 19.0 Ci/mmol). The reaction was stopped and passed through glass fiber filters to separate free and incorporated label. For inhibition studies, the peptidomimetics were premixed with FTase or GGTase I prior to adding the remainder of the reaction mixture. Recombinant H-Ras-CVLS was prepared as described previously (26) from bacteria (31). Recombinant H-Ras-CVLL was prepared from bacteria (32).
FTase and GGTase I activities from 60,000×g supernatants of human Burkitt lymphoma (Daudi) cells (ATCC, Rockville, Md.) were assayed exactly as described previously for FTase (41). Inhibition studies were performed by determining the ability of Ras CAAX peptidomimetics to inhibit the transfer of [^3 H]-farnesyl and [^3 H]-geranylgeranyl from [^3 H]FPP and [^3 H]GGPP to H-ras-CVLS and H-Ras-CVLL, respectively (41).

The target in assay [3] is T1, FTase. Description: FTase activity assay: transfer of [3H]farnesyl from FPP to recombinant H-Ras-CVLS, Daudi 60,000xg supernatant. To be noted: Table 4. The assay is classed as biochemical. The procedure: FTase and GGTase I activities from 60,000×g supernatants of human Burkitt lymphoma (Daudi) cells (ATCC, Rockville, Md., USA) were assayed as described previously for FTase (41). Briefly, 100 μg of the supernatant was incubated in 50 mM Tris, pH 7.5, 50 μM ZnCl2, 20 mM KCl and 1 mM dithiothreitol (DTT).
as §1, with “For FTase assays, the reaction was incubated at 37° C. for 30 minutes with recombinant H-Ras-CVLS (11 μM) and [^3 H]” left out, “Recombinant H-Ras-CVLS was prepared as described previously (26) from bacteria (31).” left out
FTase and GGTase I activities from 60,000×g supernatants of human Burkitt lymphoma (Daudi) cells (ATCC, Rockville, Md.) were assayed exactly as described previously for FTase (41).

The test system of assay [4] is Rap1A processing. Description: Rap1A processing assay in EJ3 / Ras transformed 3T3 cells (FIG. 16B). The assay is classed as cell-based. Here is the method:
For Rap1A processing assays, 50 μg of cell lysates were electrophoresed as described above for Ras processing and transferred to nitrocellulose. These membranes were then blocked with 5% milk in Tris-buffered saline, pH 8.0, containing 0.5% Tween-20 and probed with anti-Rap1A (1 μg/ml in 5% milk/TBS-T; Santa Cruz Biotechnology, Santa Cruz, Calif.). Antibody reactions were visualized using peroxidase-conjugated goat anti-rabbit IgG (Oncogene) and ECL chemiluminescence as described above.

In assay [5] the test system is Ras processing. Description: Ras processing assay in EJ3 / Ras transformed 3T3 cells (FIG. 16A). The assay is classed as cell-based. The settings on record: FIG. 16A. The procedure:
EJ3 cells were treated with peptidomimetics or vehicle for 20-24 h. Cells were lysed in lysis buffer (10 mM Na2 HPO4, pH 7.25, 150 mM NaCl, 0.1% sodium dodecyl sulfate, 1% Triton X-100, 12 mM sodium deoxycholate, 1 mM NaF, 0.2% NaN3, 2 mM PMSF, 25 μg/ml leupeptin) and the lysates were cleared by spinning at 13,000 rpm for 15 minutes. Ras protein was immunoprecipitated overnight at 4° C. with 50 μg of anti-Ras antibody (Y13-259; hybridoma from ATCC, Rockville, Md.) along with 30 μl Protein A-agarose goat anti-rat IgG complex (oncogene Science, Uniondale, N.Y.). Immunoprecipitates were washed 4 times with lysis buffer and the bound proteins were released by heating for 5 minutes in 40 μl SDS-PAGE sample buffer and subsequently electrophoresed on a 12.5% SDS-PAGE.

Assay [6] deals with K-Ras4B processing. Description: K-Ras4B processing assay in NIH 3T3 cells overexpressing oncogenic K-Ras4B. The assay is classed as cell-based. The settings on record: for IC50: Mus musculus, NIH3T3, whole cells. The text has this:
H-Ras cells (45) and K-Ras4B Cells (32) were kind gifts from Dr. Channing Der and Dr. Adrienne Cox (University of North Carolina, Chapel Hill). Means of obtaining these cell lines will be easily recognized by the skilled practitioner.

Assay [7] relates to H-Ras processing. Put plainly: Ras processing assay in H-RasF cells (NIH 3T3 transformed with oncogenic H-Ras-CVLS), immunoblot. The assay is classed as cell-based. To be noted: for IC50: Mus musculus, NIH3T3, whole cells. The procedure: (§2) H-RasF cells (45) were seeded on day 0 in 100 mm Dishes (costar) in Dulbecco's modified Eagles medium (GIBCO) and allowed to grow to 40-60% confluency. […] On day 3, cells were washed one time with ice cold PBS and were collected and lysed by incubation for 30-60 min on ice in lysis buffer (41). Lysates were cleared (14,000 rpm, 4° C., 15 min) and supernatants collected. Equal amounts of lysate were separated on a 12.5% SDS-PAGE, transfered to nitrocellulose, and a western blot performed using a anti-Ras antibody (Y13-238, ATCC) or anti-Rap1A antibody (Santa Cruz Biotechnology, Santa Cruz, Calif.). Antibody reactions were visualized using peroxidase-conjugated goat anti-rat IgG for Y13-238 and peroxidase-conjugated goat anti-rabbit IgG for Rap1A and an enhanced chemiluminescence detection system (ECL; Amersham Corp.)
(§3) H-Ras cells (45) and K-Ras4B Cells (32) were kind gifts from Dr. Channing Der and Dr. Adrienne Cox (University of North Carolina, Chapel Hill). Means of obtaining these cell lines will be easily recognized by the skilled practitioner. Cells were seeded on day 0 in 100 mm dishes in Dulbecco's modified Eagles medium supplemented with 10% calf serum and 1% penicillin-streptomycin. […] On day 3, cells were washed and lysed in lysis buffer containing 50 mM HEPES, pH 7.5, 10 mM NaCl, 1% TX-100, 10% glycerol, 5 mM MgCl2, 1 mM EGTA, 25 μg/ml leupeptin, 2 mM PMSF, 2 mM Na3 VO4, 1 mg/ml soybean trypsin inhibitor, 10 μg/ml aprotinin, 6.4 mg/ml Sigma-104® phosphatase substrate. Lysates were cleared (14,000 rpm, 4° C., 15 min) and equal amounts of protein were separated on a 12.5% SDS-PAGE, transferred to nitrocellulose, and immunoblotted using an anti-Ras antibody (Y13-259, ATCC) or an anti-RapIA antibody (SC-65, Santa Cruz Biotechnology, Santa Cruz, Calif.). Antibody reactions were visualized using either peroxidase-conjugated goat anti-rat 1 gG (for Y13-259), or peroxidase-conjugated goat anti-rabbit 1 gG (for Rap1A) and an enhanced chemiluminescence detection (ECL, Amersham Corp.), as described previously (41).

Assay [8] concerns K-Ras4B transformed NIH-3T3 cells. Description: Nude mouse xenograft, K-Ras4B transformed NIH-3T3 cells. The assay is classed as in vivo, nude mice. The settings on record: for tumor size: two weeks. The procedure: In contrast, tumors from animals treated once daily with GGTI-286 (25 mg/kg or 50 mg/kg) grew to a size of 1600 mm^3 or 900 mm^3, respectively (FIG. 22).
Assay [9] deals with oncogenic H-Ras activation of MAPK. Description: Oncogenic H-Ras activation of MAP kinase, immunoblot. In kind it is cell-based. To be noted: 0-30 μM, FIG. 20. The text has this: (§4) Equal amounts of protein were separated on a 15% SDS-PAGE, transferred to nitrocellulose, and immunoblotted using an anti-MAP kinase antibody (erk2, monoclonal, UB1, Lake Placid, N.Y.). Antibody reactions were visualized using peroxidase-conjugated donkey anti-mouse IgG (Jackson ImmunoResearch Laboratories Inc., West Grove, Pa.) and an enhanced chemiluminescence detection system (ECL, Amersham Corp.)

Assay [10] relates to oncogenic K-Ras4B activation of MAP kinase. Put plainly: Oncogenic K-Ras4B activation of MAP kinase, immunoblot. In kind it is cell-based.
From the text: as §4

Assay [11] relates to Rap1A processing. Description: Rap1A processing assay in NIH 3T3 cells overexpressing oncogenic H-Ras, immunoblot. The assay is classed as cell-based. The settings on record: whole cells; for IC50: Mus musculus, NIH3T3. The procedure: as §2, §3

Read-outs that look alike come from different tables or passages of the source.

T1 sequence (P49356 whole entry): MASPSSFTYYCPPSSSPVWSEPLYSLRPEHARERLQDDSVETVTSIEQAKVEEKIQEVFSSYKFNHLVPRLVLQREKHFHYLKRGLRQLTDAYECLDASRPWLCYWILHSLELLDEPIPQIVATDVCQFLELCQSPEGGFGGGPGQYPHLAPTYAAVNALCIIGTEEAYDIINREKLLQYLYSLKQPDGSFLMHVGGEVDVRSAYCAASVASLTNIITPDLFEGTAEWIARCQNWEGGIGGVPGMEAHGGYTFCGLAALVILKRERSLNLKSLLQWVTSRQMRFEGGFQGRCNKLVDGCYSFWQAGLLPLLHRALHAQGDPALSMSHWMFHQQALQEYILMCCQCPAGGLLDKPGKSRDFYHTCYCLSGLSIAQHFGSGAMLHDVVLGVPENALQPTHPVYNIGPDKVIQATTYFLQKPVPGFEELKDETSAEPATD
T2 sequence (P53609 whole entry): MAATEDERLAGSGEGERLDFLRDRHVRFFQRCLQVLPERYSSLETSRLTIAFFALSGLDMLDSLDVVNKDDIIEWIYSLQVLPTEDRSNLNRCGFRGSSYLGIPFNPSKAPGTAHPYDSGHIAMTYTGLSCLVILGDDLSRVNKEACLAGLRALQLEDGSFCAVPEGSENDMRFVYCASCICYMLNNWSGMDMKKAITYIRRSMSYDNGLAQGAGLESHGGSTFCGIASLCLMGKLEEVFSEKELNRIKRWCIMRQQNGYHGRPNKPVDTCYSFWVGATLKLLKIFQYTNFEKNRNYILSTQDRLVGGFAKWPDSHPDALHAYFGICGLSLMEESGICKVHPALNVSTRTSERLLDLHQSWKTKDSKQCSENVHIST

With `Cc1cccc(-c2ccc(NC[C@@H](N)CS)cc2)c1` [FTI-263, 4-N-[2(R)-Amino-3-mercaptopropyl]amino-3'-methylbiphenyl], the Substrate result in [1] is recorded as “no”. The IC50 in assay [2] is greater than 100 µM; in assay [3] (read-out: FTase IC50) it was 0.71 µM. The Selectivity in [3] (FTase over GGTase I) came out at 141. Further, the “inhibition of Rap1A processing” value in assay [4] is listed as “did not inhibit Rap1A processing”.
Turning to `CC[C@H](C)C(=O)O[C@H]1C[C@@H](C)C=C2C=C[C@H](C)[C@H](CC[C@@H]3C[C@@H](O)CC(=O)O3)[C@H]21` [lovastatin, reference compound], the “inhibition of Ras processing” value in assay [5] is reported as “inhibited Ras processing”. Further, the “inhibition of Rap1A processing” value in assay [4] was “inhibited the processing of Rap1A”.
Regarding `COC(=O)[C@H](CC(C)C)NC(=O)c1ccc(NC[C@@H](N)CS)cc1-c1ccccc1.Cl` [GGTI-286, 4-[2(R)-amino-3-mercaptopropyl]amino-2-phenylbenzoyl-(S)-leucine methyl ester hydrochloride], the “concentrations inhibiting K-Ras4B processing that had no effect on processing of farnesylated H-Ras” value in assay [6] lay within 1 to 3 µM. In addition, the half-maximal inhibitory concentration (IC50) in [6] (Table 5, read-out: In Vivo Processing IC50 K-Ras) is 2 µM; in assay [6] (read-out: K-Ras4B processing IC50), 2 µM; in assay [7] (Table 5, read-out: In Vivo Processing IC50 H-Ras), greater than 30 µM; in [7] (read-out: H-Ras processing IC50), greater than 30 µM; in assay [10] (read-out: IC50, inhibition of K-Ras4B MAP kinase activation), 1 µM; in assay [11] (Table 5, read-out: In Vivo Processing IC50 Rap1A), 2 µM. Also, the IC50 in assay [11] (read-out: Rap1A processing IC50) turned out to be 2 µM. Moreover, the “concentration needed for accumulation of unprocessed H-Ras” value in assay [7] (FIG. 18) was no less than 30 µM. For the same molecule, the “inhibition of tumor growth” value in [8] (25 mg/kg once daily) is on record as 50%; in assay [8] (50 mg/kg once daily) it was 70%. Also, the tumor size turned out to be 1600 mm^3 in assay [8] (25 mg/kg once daily) and 900 mm^3 in [8] (50 mg/kg once daily). The “inhibition of oncogenic H-Ras activation of MAP kinase” value in assay [9] is listed as “inhibited only slightly”. Moreover, in assay [10], the “concentration of complete block of K-Ras4B MAP kinase activation” value was 10 µM. The “selectivity for inhibition of geranylgeranylation over farnesylation processing” value in assay [11] is “more than 15 fold”.
Take `N[C@@H](CS)CNc1ccc(-c2ccc(C(=O)O)cc2)cc1` [FTI-271, 4-N-[2(R)-Amino-3-mercaptopropyl]amino-4'-carboxybiphenyl]: the Substrate entry in [1] is “no”. Further, in assay [2], the IC50 is greater than 100 µM. For the same molecule, the “inhibition of Rap1A processing” value in [4] is reported as “did not inhibit Rap1A processing”.

For the origin of these results see patent US5965539A, “Inhibitors of prenyl transferases” (Univeristy of Pittsburgh, priority 1996, dated 1999).
